Values quoted from earlier work as cited in patent US8585707B2, “Continuous low irradiance photodynamic therapy method” (priority 2006, dated 2013).

Settings: after intravenous administration, attributed to extended half-life

Photofrin
time the level of drug in the tissue remains stable: over 36 hours
